Patent US20050209278A1, “Piperidinyl- and piperazinyl-sulfonylmethyl hydroxamic acids and their use as protease inhibitors” (priority 2002, published 2005)
“And” between values parts separate entries of the source, which are not always exact repeats. Equal values may be shown once.

Assays:
MMP-9 = target: T1, MMP-9 (Homo sapiens, UniProt P14780); test: In vitro MMP inhibition, IC50 determination (fluorogenic substrate I); type: biochemical; details: value in parentheses; read-out: MMP-9 (IC-50)
T1 construct: made in house; host or cells: MMP-9-transfected HT1080 cells (spent media)
T1 sequence (P14780 107-707 limits assumed): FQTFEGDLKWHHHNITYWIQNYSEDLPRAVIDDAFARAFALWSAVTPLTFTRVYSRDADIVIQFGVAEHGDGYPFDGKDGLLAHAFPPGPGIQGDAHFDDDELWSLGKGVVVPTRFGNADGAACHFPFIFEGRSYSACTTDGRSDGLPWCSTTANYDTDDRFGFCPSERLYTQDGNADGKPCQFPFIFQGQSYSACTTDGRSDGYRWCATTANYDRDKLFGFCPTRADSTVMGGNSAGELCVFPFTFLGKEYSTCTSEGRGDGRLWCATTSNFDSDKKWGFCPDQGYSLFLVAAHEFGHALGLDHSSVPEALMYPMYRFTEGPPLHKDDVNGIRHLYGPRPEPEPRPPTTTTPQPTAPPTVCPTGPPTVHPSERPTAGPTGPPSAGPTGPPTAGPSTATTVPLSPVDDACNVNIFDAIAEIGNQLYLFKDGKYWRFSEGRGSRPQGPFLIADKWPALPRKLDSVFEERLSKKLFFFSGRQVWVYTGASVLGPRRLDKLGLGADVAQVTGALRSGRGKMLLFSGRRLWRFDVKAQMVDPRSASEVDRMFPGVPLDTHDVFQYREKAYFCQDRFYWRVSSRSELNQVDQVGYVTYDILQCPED
Description: Several hydroxamic acids and salts thereof were analyzed in in vitro assays to determine their ability to inhibit the MMP cleavage of peptide substrates. […] and IC50 constants were calculated from the assayed hydroxamic acid-MMP interactions. Human recombinant MMP-1, MMP-2, MMP-9, MMP-13, and MMP-14 were used in this assay. All enzymes were prepared in Assignee's laboratories following usual laboratory procedures. Protocols for the preparation and use of these enzymes are available in the scientific literature. See, e.g., Enzyme Nomenclature (Academic Press, San Diego, Calif., 1992) (and the citations therein). See also, Freije et al., “Molecular cloning and expression of collagenase-3, a novel human matrix metalloproteinase produced by breast carcinomas,” J Biol. Chem., 269(24), 16766-16773 (1994). The MMP-9 proenzyme was purified by gelatin Sepharose chromatography from spent media of MMP-9-transfected HT1080 cells provided by Dr. Howard Welgus of Washington University (St. Louis, Mo.). All MMPs were activated using 4-aminophenylmercuric acetate (“APMA”, Sigma Chemical, St. Louis, Mo.) or trypsin. MMP-9 also was activated using human recombinant MMP-3 (purified in Assignee's laboratory following standard cloning and purification techniques). […] Substrate (I) was purchased from Baychem (Redwood City, Calif.), and substrate II was prepared Assignee's laboratory. Substrate I was used in the IC50 determination assays, while substrate II was used in the Ki determination assays. In the absence of MMP inhibitory activity, either substrate is cleaved at the Gly-Leu peptide bond. […] The stock solutions of the assayed hydroxamic acids (or salts thereof) were prepared in 1% dimethyl sulfoxide (DMSO). […] The experiment controls contained the same amount of Buffer A/DMSO as the assayed sample, but contained no hydroxamic acid (or salt thereof). The assays from which the IC50 determinations were made were performed as follows. […] Louis, Mo.). The assayed hydroxamic acid samples were incubated in MicrofluorTM White Plates (Dynatech, Chantilly, Va.) and analyzed on a Perkin Elmer […] plate reader (Norwalk, Conn.). The excitation wavelength was 328 nm, and the emission wavelength-415 nm. […] As stated in the previous paragraph, samples containing varying concentrations of the same assayed hydroxamic acid were prepared. Inhibition was measured as a reduction in fluorescent intensity as a function of MMP inhibitor concentration. […] All values in Table 2 are given in nM units. The IC50 measurements are in parenthesis.

MMP-14 = target: T2, MMP-14 (Homo sapiens, UniProt P50281); test: as above; type: biochemical; details: value in parentheses; read-out: MMP-14 (IC-50)
T2 construct: The catalytic domain enzyme was expressed in E. coli inclusion bodies, solubilized in urea; made in house
Description: Several hydroxamic acids and salts thereof were analyzed in in vitro assays to determine their ability to inhibit the MMP cleavage of peptide substrates. […] and IC50 constants were calculated from the assayed hydroxamic acid-MMP interactions. Human recombinant MMP-1, MMP-2, MMP-9, MMP-13, and MMP-14 were used in this assay. All enzymes were prepared in Assignee's laboratories following usual laboratory procedures. Protocols for the preparation and use of these enzymes are available in the scientific literature. See, e.g., Enzyme Nomenclature (Academic Press, San Diego, Calif., 1992) (and the citations therein). See also, Freije et al., “Molecular cloning and expression of collagenase-3, a novel human matrix metalloproteinase produced by breast carcinomas,” J Biol. Chem., 269(24), 16766-16773 (1994). The MMP-14 full length cDNA was provided by Dr. Gregory Goldberg of Washington University (St. Louis, Mo.). The catalytic domain enzyme was expressed in E. coli inclusion bodies, solubilized in urea, purified on a preparative […] reverse phase HPLC column, and then refolded in the presence of zinc acetate and purified for use. All MMPs were activated using 4-aminophenylmercuric acetate (“APMA”, Sigma Chemical, St. Louis, Mo.) or trypsin. MMP-9 also was activated using human recombinant MMP-3 (purified in Assignee's laboratory following standard cloning and purification techniques). […] Substrate (I) was purchased from Baychem (Redwood City, Calif.), and substrate II was prepared Assignee's laboratory. Substrate I was used in the IC50 determination assays, while substrate II was used in the Ki determination assays. In the absence of MMP inhibitory activity, either substrate is cleaved at the Gly-Leu peptide bond. […] The stock solutions of the assayed hydroxamic acids (or salts thereof) were prepared in 1% dimethyl sulfoxide (DMSO). […] The experiment controls contained the same amount of Buffer A/DMSO as the assayed sample, but contained no hydroxamic acid (or salt thereof). The assays from which the IC50 determinations were made were performed as follows. […] Louis, Mo.). The assayed hydroxamic acid samples were incubated in MicrofluorTM White Plates (Dynatech, Chantilly, Va.) and analyzed on a Perkin Elmer […] plate reader (Norwalk, Conn.). The excitation wavelength was 328 nm, and the emission wavelength-415 nm. […] As stated in the previous paragraph, samples containing varying concentrations of the same assayed hydroxamic acid were prepared. Inhibition was measured as a reduction in fluorescent intensity as a function of MMP inhibitor concentration. […] All values in Table 2 are given in nM units. The IC50 measurements are in parenthesis.

Row | Compound | IC50 (MMP-9) | IC50 (MMP-14)
1 | COCCOc1ccc(N2CCN(S(=O)(=O)C3(C(=O)NO)CCN(C4CC4)CC3)CC2)cc1F [Example 297] | 31.1 nM | > 10000 nM and 6470 nM
2 | CCCCOc1ccc(N2CCN(S(=O)(=O)C3(C(=O)NO)CCN(c4ccc(C)cc4)CC3)CC2)cc1 [Example 295] | 0.1 nM | > 10000 nM
3 | C#CCN1CCC(C(=O)NO)(S(=O)(=O)N2CCN(c3ccc(OCCCC)cc3)CC2)CC1 [Example 303] | 0.3 nM | 2240 nM
4 | CCCCOc1ccc(N2CCN(S(=O)(=O)C3(C(=O)NO)CCN(c4ccc(C)cc4)CC3)CC2)cc1F [Example 296] | 116 nM | > 10000 nM

Other lines, results leading:

Row | IC50 (MMP-9) | IC50 (MMP-14) | Compound
5 | 3 nM | > 10000 nM | CCCCOc1ccc(N2CCN(S(=O)(=O)C3(C(=O)NO)CCN(CC4CC4)CC3)CC2)cc1 [Example 298]
6 | 0.6 nM | 5630 nM | CCCCOc1ccc(N2CCN(S(=O)(=O)C3(C(=O)NO)CCN(C4CC4)CC3)CC2)cc1 [Example 301]
